This passage reports MBC, Ratio and MIC results from ChEMBL document CHEMBL4813981, “Synthesis and in vitro antibacterial activity of new aminothiazole-oximepiperidone cephalosporins” (2021).

As usually defined, the MBC is the smallest concentration meeting the test's criterion for killing. As a reminder, the MIC is the least concentration at which growth counts as inhibited.

≈ marks a conversion by molar mass, not a printed value.

Assay [1] has as its system Klebsiella pneumoniae. Briefly: Bactericidal activity against Carbapenem- resistant Klebsiella pneumoniae KR 15-5 assessed as reduction in bacterial growth in the presence of avibactam. The format is functional.
Assay [2] deals with Escherichia coli. Briefly: Ratio of MBC to MIC for ESBLs negative Carbapenem-sensitive Escherichia coli 17-20 assessed as reduction in bacterial growth. The format is functional.
The test system of assay [3] is Escherichia coli. Briefly: Antibacterial activity against ESBLs positive Carbapenem-sensitive Escherichia coli 17-2 assessed as reduction in bacterial growth in the presence of Avibactam. The format is functional.
The test system of assay [4] is Klebsiella pneumoniae. Put plainly: Antibacterial activity against Klebsiella pneumoniae ATCC 700603 assessed as reduction in bacterial growth. The format is functional.
The subject of assay [5] is Enterobacter cloacae. Put plainly: Antibacterial activity against Enterobacter cloacae 17-5 assessed as reduction in bacterial growth in the presence of Avibactam. The format is functional.
For assay [6], the system named is Enterobacter cloacae. Briefly: Antibacterial activity against Enterobacter cloacae 17-9 assessed as reduction in bacterial growth.
Assay [7] relates to Acinetobacter baumannii. Put plainly: Ratio of MBC to MIC for Carbapenem- resistant Acinetobacter baumannii 17-11 assessed as reduction in bacterial growth in the presence of Avibactam. The format is functional.
Assay [8] concerns Klebsiella pneumoniae. Put plainly: Bactericidal activity against ESBLs negative Carbapenem-sensitive Klebsiella pneumoniae 17-16 assessed as reduction in bacterial growth in the presence of avibactam. The format is functional.
Assay [9] concerns Klebsiella pneumoniae. Briefly: Antibacterial activity against Carbapenem- resistant Klebsiella pneumoniae KR 15-12 assessed as reduction in bacterial growth in the presence of Avibactam. The format is functional.
Assay [10] has as its system Enterobacter cloacae. Put plainly: Ratio of MBC to MIC for Enterobacter cloacae 17-9 assessed as reduction in bacterial growth. The format is functional.
Assay [11] relates to Klebsiella aerogenes. Briefly: Antibacterial activity against Enterobacter aerogenes 17-5 assessed as reduction in bacterial growth in the presence of Avibactam. The format is functional.
The subject of assay [12] is Klebsiella pneumoniae. Briefly: Bactericidal activity against Carbapenem- resistant Klebsiella pneumoniae KR 15-4 assessed as reduction in bacterial growth in the presence of avibactam. The format is functional.
The test system of assay [13] is Escherichia coli. Put plainly: Antibacterial activity against ESBLs positive Carbapenem-sensitive Escherichia coli 17-10 assessed as reduction in bacterial growth.
Assay [14] deals with Escherichia coli. Briefly: Antibacterial activity against ESBLs negative Carbapenem-sensitive Escherichia coli 17-7 assessed as reduction in bacterial growth in the presence of Avibactam. The format is functional.
For assay [15], the system named is Escherichia coli. Put plainly: Ratio of MBC to MIC for Escherichia coli NCTC 13353 assessed as reduction in bacterial growth in the presence of Avibactam. The format is functional.
Assay [16] has as its system Pseudomonas aeruginosa. Put plainly: Antibacterial activity against Carbapenem- sensitive Pseudomonas aeruginosa 17-29 assessed as reduction in bacterial growth in the presence of Avibactam. The format is functional.
In assay [17] the test system is Klebsiella pneumoniae. Put plainly: Antibacterial activity against ESBLs positive Carbapenem-sensitive Klebsiella pneumoniae 17-12 assessed as reduction in bacterial growth in the presence of Avibactam. The format is functional.
Assay [18] relates to Escherichia coli. Put plainly: Ratio of MBC to MIC for ESBLs positive Carbapenem-sensitive Escherichia coli 17-3 assessed as reduction in bacterial growth. The format is functional.
In assay [19] the test system is Klebsiella pneumoniae. Put plainly: Ratio of MBC to MIC for ESBLs negative Carbapenem-sensitive Klebsiella pneumoniae 17-17 assessed as reduction in bacterial growth. The format is functional.
Assay [20] deals with Escherichia coli. Briefly: Ratio of MBC to MIC for Escherichia coli ATCC 25922 assessed as reduction in bacterial growth. The format is functional.
For assay [21], the system named is Klebsiella pneumoniae. Briefly: Ratio of MBC to MIC for Carbapenem- resistant Klebsiella pneumoniae KR 15-6 assessed as reduction in bacterial growth. The format is functional.
Assay [22] concerns Klebsiella aerogenes. Put plainly: Bactericidal activity against Enterobacter aerogenes 15-4 assessed as reduction in bacterial growth. The format is functional.
The subject of assay [23] is Klebsiella pneumoniae. Briefly: Bactericidal activity against Klebsiella pneumoniae ATCC BAA-1705 assessed as reduction in bacterial growth. The format is functional.
Assay [24] deals with Klebsiella aerogenes. Put plainly: Bactericidal activity against Enterobacter aerogenes 15-4 assessed as reduction in bacterial growth in the presence of avibactam. The format is functional.
The test system of assay [25] is Escherichia coli. Briefly: Ratio of MBC to MIC for ESBLs negative carbapenem-negative Escherichia coli 17-20 assessed as reduction in bacterial growth in the presence of Avibactam. The format is functional.
The test system of assay [26] is Klebsiella pneumoniae. Briefly: Antibacterial activity against Carbapenem- resistant Klebsiella pneumoniae KR 15-4 assessed as reduction in bacterial growth in the presence of Avibactam. The format is functional.
In assay [27] the test system is Klebsiella pneumoniae. Briefly: Antibacterial activity against Carbapenem- resistant Klebsiella pneumoniae KR 15-6 assessed as reduction in bacterial growth in the presence of Avibactam. The format is functional.
Assay [28] has as its system Klebsiella pneumoniae. Put plainly: Bactericidal activity against ESBLs positive Carbapenem-sensitive Klebsiella pneumoniae 17-2 assessed as reduction in bacterial growth in the presence of avibactam. The format is functional.
Assay [29] concerns Escherichia coli. Briefly: Antibacterial activity against ESBLs negative Carbapenem-sensitive Escherichia coli 17-1 assessed as reduction in bacterial growth in the presence of Avibactam. The format is functional.
In assay [30] the test system is Acinetobacter baumannii. Briefly: Bactericidal activity against Carbapenem- resistant Acinetobacter baumannii 17-6 assessed as reduction in bacterial growth. The format is functional.
Assay [31] concerns Klebsiella pneumoniae. Put plainly: Antibacterial activity against Multidrug resistant Klebsiella pneumoniae KR 15-1 assessed as reduction in bacterial growth in the presence of Avibactam. The format is functional.
Assay [32] has as its system Enterobacter cloacae. Put plainly: Ratio of MBC to MIC for Enterobacter cloacae 17-9 assessed as reduction in bacterial growth in the presence of Avibactam. The format is functional.
Assay [33] concerns Acinetobacter baumannii. Put plainly: Antibacterial activity against Carbapenem- resistant Acinetobacter baumannii 17-13 assessed as reduction in bacterial growth in the presence of Avibactam. The format is functional.
The test system of assay [34] is Klebsiella aerogenes. Put plainly: Ratio of MBC to MIC for Enterobacter aerogenes 15-4 assessed as reduction in bacterial growth in the presence of Avibactam. The format is functional.
In assay [35] the test system is Klebsiella aerogenes. Put plainly: Antibacterial activity against Enterobacter aerogenes 15-6 assessed as reduction in bacterial growth in the presence of Avibactam. The format is functional.
Assay [36] concerns Klebsiella pneumoniae. Put plainly: Ratio of MBC to MIC for ESBLs positive Carbapenem-sensitive Klebsiella pneumoniae 17-6 assessed as reduction in bacterial growth in the presence of Avibactam. The format is functional.
Assay [37] deals with Klebsiella aerogenes. Briefly: Antibacterial activity against Enterobacter aerogenes 17-3 assessed as reduction in bacterial growth in the presence of Avibactam. The format is functional.
The test system of assay [38] is Klebsiella pneumoniae. Briefly: Antibacterial activity against ESBLs negative Carbapenem-sensitive Klebsiella pneumoniae 17-19 assessed as reduction in bacterial growth. The format is functional.
In assay [39] the test system is Pseudomonas aeruginosa. Put plainly: Ratio of MBC to MIC for carbapenem-sensitive Pseudomonas aeruginosa 17-26 assessed as reduction in bacterial growth in the presence of Avibactam. The format is functional.
Assay [40] deals with Escherichia coli. Briefly: Antibacterial activity against ESBLs positive Carbapenem-sensitive Escherichia coli 17-21 assessed as reduction in bacterial growth in the presence of Avibactam. The format is functional.
Assay [41] deals with Klebsiella pneumoniae. Briefly: Antibacterial activity against ESBLs positive Carbapenem-sensitive Klebsiella pneumoniae 17-10 assessed as reduction in bacterial growth in the presence of Avibactam. The format is functional.
The test system of assay [42] is Escherichia coli. Briefly: Antibacterial activity against Escherichia coli 15-3 overexpressing extended spectrum beta-lactamases assessed as reduction in bacterial growth. The format is functional.
The subject of assay [43] is Klebsiella aerogenes. Put plainly: Ratio of MBC to MIC for Enterobacter aerogenes 17-4 assessed as reduction in bacterial growth in the presence of Avibactam. The format is functional.
The test system of assay [44] is Klebsiella aerogenes. Briefly: Ratio of MBC to MIC for Enterobacter aerogenes 17-4 assessed as reduction in bacterial growth. The format is functional.
For assay [45], the system named is Klebsiella aerogenes. Briefly: Bactericidal activity against Enterobacter aerogenes 17-1 assessed as reduction in bacterial growth. The format is functional.
Assay [46] has as its system Escherichia coli. Put plainly: Ratio of MBC to MIC for ESBLs negative carbapenem-negative Escherichia coli 17-7 assessed as reduction in bacterial growth in the presence of Avibactam. The format is functional.
Assay [47] has as its system Klebsiella aerogenes. Put plainly: Bactericidal activity against Enterobacter aerogenes 17-4 assessed as reduction in bacterial growth. The format is functional.

For `Nc1nc(/C(=N/OCc2cc(=O)c(O)cn2O)C(=O)N[C@@H]2C(=O)N3C(C(=O)O)=CCS[C@H]23)cs1`, the MBC in assay [1] was 4 µg/mL; in assay [8], 0.06 µg/mL; in [12], 8 µg/mL; in [22] it was 4 µg/mL (≈ 7.87 µM); in assay [23], greater than 64 µg/mL; in [24], 1 µg/mL. For the same molecule, the minimal bactericidal concentration (MBC) in assay [28] was 0.125 µg/mL; in assay [30], greater than 64 µg/mL; in assay [45], 64 µg/mL (≈ 126 µM); in assay [47], 16 µg/mL (≈ 31.5 µM). Moreover, the Ratio in [2] is on record as greater than 8; in assay [7], greater than 8; in assay [10] it was 1; in assay [15] it was 1; in assay [18] it was 1; in assay [19] it was 2. Besides, the Ratio in assay [20] is on record as greater than 16; in [21] it was 4; in assay [25] it was greater than 16; in assay [32] it was 1; in assay [34], 2; in [36] it was 2. For the same molecule, the Ratio stood at 4 in [39], 1 in [43], 2 in assay [44] and 2 in assay [46]. The minimal inhibitory concentration (MIC) is 0.25 µg/mL in [3]; 64 µg/mL (≈ 126 µM) in [4]; 4 µg/mL in assay [5]; 8 µg/mL (≈ 15.7 µM) in assay [6]; 4 µg/mL in assay [9]; 2 µg/mL in assay [11]. Also, the minimal inhibitory concentration (MIC) in assay [13] worked out at 4 µg/mL (≈ 7.87 µM); in [14], 0.5 µg/mL; in [16], 1 µg/mL; in assay [17], 0.125 µg/mL; in assay [26], 4 µg/mL; in assay [27] it was 0.5 µg/mL. The minimum inhibitory concentration (MIC) in assay [29] was 0.25 µg/mL; in [31], 1 µg/mL; in assay [33], 2 µg/mL; in assay [35] it was 0.5 µg/mL; in assay [37], 0.5 µg/mL; in assay [38], no more than 0.03 µg/mL. The minimal inhibitory concentration (MIC) in [40] was found to be 0.5 µg/mL; in assay [41], 1 µg/mL; in assay [42], 64 µg/mL (≈ 126 µM).

Take `CC(C)(O/N=C(\C(=O)N[C@@H]1C(=O)N2C(C(=O)[O-])=C(C[n+]3ccccc3)CS[C@H]12)c1csc(N)n1)C(=O)O` [CEFTAZIDIME]: the MBC in assay [1] was 4 µg/mL; in assay [8] it was 0.25 µg/mL; in assay [12], 2 µg/mL; in [22] it was 0.5 µg/mL (≈ 0.915 µM); in [23], greater than 64 µg/mL; in [24] it was 0.25 µg/mL. For the same molecule, the MBC is 0.25 µg/mL in assay [28], greater than 64 µg/mL in assay [30] and 16 µg/mL (≈ 29.3 µM) in assay [45]. The MIC was 32 µg/mL (≈ 58.5 µM) in assay [4]; 1 µg/mL in assay [5]; 4 µg/mL in assay [9]; 0.5 µg/mL in [11]; 0.125 µg/mL in [14]; 0.5 µg/mL in [16]. Further, the minimum inhibitory concentration (MIC) came to 1 µg/mL in assay [17]; 2 µg/mL in [26]; 1 µg/mL in [27]; 0.5 µg/mL in assay [29]; 2 µg/mL in assay [31]; 2 µg/mL in [33]. The minimal inhibitory concentration (MIC) in assay [42] worked out at 8 µg/mL (≈ 14.6 µM).

Consider `C[C@@H](O)[C@H]1C(=O)N2C(C(=O)O)=C(S[C@@H]3CN[C@H](C(=O)N(C)C)C3)[C@H](C)[C@H]12` [MEROPENEM], for which the MIC in assay [38] is less than 0.03 µg/mL.
